Source: the supplement of paper PMC11061612

Legend:
Experiment in all cases: combination Emax (second highest fraction inhibited in the dose matrix, 72 h); higher = more inhibition; extreme values may be limits of the assay
[1] = system: KMS-12-BM (Plasma Cell Myeloma)
Method in brief: (§1)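 After 24 hours at 37°C and 5% CO2 in 1536-well plates, cells in DMEM/F12 or RPMI plus 10% FBS received two-drug dose matrices for 72 hours. Viability came from CellTiter-Glo 2.0 luminescence and was scaled as inhibition, anchored at 0 by vehicle wells and at 1 by blank wells. Combination Emax is taken as the second-highest inhibition in the matrix, and Bliss excess as the observed combination effect less EA + EB − EA·EB, with EA and EB the single-agent effects.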

[2] = system: NCI-H3122 (Lung Adenocarcinoma)
Method in brief: as §1

[3] = system: MOG-G-CCM (Low Grade Glioma)
Method in brief: as §1

[4] = system: SK-GT-2 (Gastric Carcinoma)
Method in brief: as §1

[5] = system: CW-2 (Colorectal Carcinoma)
Method in brief: as §1

G-361 (Melanoma) = system: G-361 (Melanoma)
Method in brief: as §1

[6] = system: MOLM-13 (Acute Myeloid Leukemia)
Method in brief: as §1

[7] = system: NCCIT (Other Solid Carcinomas)
Method in brief: as §1

[8] = system: RPMI-8226 (Plasma Cell Myeloma)
Method in brief: as §1

RD (Rhabdomyosarcoma) = system: RD (Rhabdomyosarcoma)
Method in brief: as §1

[9] = system: JHH-4 (Hepatocellular Carcinoma)
Method in brief: as §1

SJSA-1 (Osteosarcoma) = system: SJSA-1 (Osteosarcoma)
Method in brief: as §1

NCI-H2731 (Mesothelioma) = system: NCI-H2731 (Mesothelioma)
Method in brief: as §1

[10] = system: NCI-H929 (Plasma Cell Myeloma)
Method in brief: as §1

M059J (Glioblastoma) = system: M059J (Glioblastoma)
Method in brief: as §1

[11] = system: VMRC-RCZ (Kidney Carcinoma)
Method in brief: as §1

[12] = system: DAN-G (Pancreatic Carcinoma)
Method in brief: as §1

[13] = system: KU812 (Chronic Myelogenous Leukemia)
Method in brief: as §1

[14] = system: NCI-H526 (Small Cell Lung Carcinoma)
Method in brief: as §1

SMILES	combination Emax [1]	combination Emax [2]	combination Emax [3]	combination Emax [4]	combination Emax [5]	combination Emax (G-361 (Melanoma))	combination Emax [6]	combination Emax [7]	combination Emax [8]	combination Emax (RD (Rhabdomyosarcoma))	combination Emax [9]	combination Emax (SJSA-1 (Osteosarcoma))	combination Emax (NCI-H2731 (Mesothelioma))	combination Emax [10]	combination Emax (M059J (Glioblastoma))	combination Emax [11]	combination Emax [12]	combination Emax [13]	combination Emax [14]
NC1(C(=O)N[C@@H](CCO)c2ccc(Cl)cc2)CCN(c2ncnc3[nH]ccc23)CC1 [Capivasertib] + C[C@@H]1COCCN1C2=NC(=NC(=C2)C3(CC3)[S@](=N)(=O)C)C4=C5C=CNC5=NC=C4 [AZD6738] (first compound max 10 µM, 7x7, partner max 10 µM)	0.823	0.727	0.787	0.601	0.542	0.614	0.982	0.66	0.875	0.402	0.309	0.713	0.514	1	0.622	0.549	0.721	0.851	0.779
CCc1c2c(nc3ccc(O)cc13)-c1cc3c(c(=O)n1C2)COC(=O)[C@]3(O)CC [SN-38] + O=C(c1cc(Cc2n[nH]c(=O)c3ccccc23)ccc1F)N1CCN(C(=O)C2CC2)CC1 [Olaparib] (first compound max 0.3 µM, 7x7, partner max 10 µM)		0.932	0.49		0.604	0.459		0.274				0.804	0.503	0.95	0.987	0.281		0.756	1
NC1(C(=O)N[C@@H](CCO)c2ccc(Cl)cc2)CCN(c2ncnc3[nH]ccc23)CC1 [Capivasertib] + CC(=O)c1c(C)c2cnc(Nc3ccc(N4CCNCC4)cn3)nc2n(C2CCCC2)c1=O [Palbociclib] (first compound max 10 µM, 7x7, partner max 10 µM)	0.734	0.701	0.501	0.248	0.445	0.443	0.98	0.537	0.483	0.463	0.466	0.51	0.361	1	0.338	0.401	0.355	0.552	0.15
CS(=O)(=O)CCNCc1ccc(-c2ccc3ncnc(Nc4ccc(OCc5cccc(F)c5)c(Cl)c4)c3c2)o1 [Lapatinib] + Cn1cnc2c(F)c(Nc3ccc(Br)cc3Cl)c(C(=O)NOCCO)cc21 [Selumetinib] (first compound max 10 µM, 7x7, partner max 10 µM)		0.611	0.257		0.576			0.255				0.422	0.35	0.707	0.365	0.257		0.963	0.164
CC(=O)c1c(C)c2cnc(Nc3ccc(N4CCNCC4)cn3)nc2n(C2CCCC2)c1=O [Palbociclib] + Cn1cnc2c(F)c(Nc3ccc(Br)cc3Cl)c(C(=O)NOCCO)cc21 [Selumetinib] (first compound max 10 µM, 7x7, partner max 10 µM)	0.642	0.701	0.157	0.165	0.451	0.721	0.982	0.276	0.547	0.569	0.59	0.424	0.191	0.79	0.179	0.115	0.43	0.904	0.0977
CC(=O)c1c(C)c2cnc(Nc3ccc(N4CCNCC4)cn3)nc2n(C2CCCC2)c1=O [Palbociclib] + CC1(C)CCC(CN2CCN(c3ccc(C(=O)NS(=O)(=O)c4ccc(NCC5CCOCC5)c([N+](=O)[O-])c4)c(Oc4cnc5[nH]ccc5c4)c3)CC2)=C(c2ccc(Cl)cc2)C1 [Venetoclax] (first compound max 10 µM, 7x7, partner max 1 µM)	1	0.572	0.136	0.0922	0.336	0.488	1	0.279	0.387	0.331	0.328	0.276	0.211	0.356	0.0491	0.105	0.178	0.521	0.71
Cc1nc(Nc2ncc(C(=O)Nc3c(C)cccc3Cl)s2)cc(N2CCN(CCO)CC2)n1 [Dasatinib] + CC(=O)Nc1cccc(-n2c(=O)n(C3CC3)c(=O)c3c(Nc4ccc(I)cc4F)n(C)c(=O)c(C)c32)c1 [Trametinib] (first compound max 2 µM, 7x7, partner max 1 µM)	0.396	0.705	0.741	0.545	0.551	0.753	0.955	0.366	0.239	0.769	1	0.522	0.361	0.992	0.492	0.454	0.962	1	0.0355
NC1(C(=O)N[C@@H](CCO)c2ccc(Cl)cc2)CCN(c2ncnc3[nH]ccc23)CC1 [Capivasertib] + CCN(CCO)CCCOc1ccc2c(Nc3cc(CC(=O)Nc4cccc(F)c4)[nH]n3)ncnc2c1 [AZD2811] (first compound max 10 µM, 7x7, partner max 1 µM)	0.522	0.62	0.67	0.417	0.288	0.46	0.993	0.624	0.422	0.349	0.226	0.489	0.398	1	0.517	0.461	0.43	0.727	0.588
NC1(C(=O)N[C@@H](CCO)c2ccc(Cl)cc2)CCN(c2ncnc3[nH]ccc23)CC1 [Capivasertib] + Cn1cnc2c(F)c(Nc3ccc(Br)cc3Cl)c(C(=O)NOCCO)cc21 [Selumetinib] (first compound max 10 µM, 7x7, partner max 10 µM)	0.427	0.882	0.548	0.497	0.482	0.83	0.986	0.55	0.43	0.633	0.663	0.658	0.306	1	0.415	0.388	0.65	0.983	0.249
NC1(C(=O)N[C@@H](CCO)c2ccc(Cl)cc2)CCN(c2ncnc3[nH]ccc23)CC1 [Capivasertib] + COc1nnc2ccc(N3CCC(c4ccc(OCCN5CCN(C)C(=O)[C@H]5C)cc4)CC3)nn12 [AZD5153] (first compound max 10 µM, 7x7, partner max 1 µM)	1	0.738	0.834	0.362	0.559	0.891	1	0.873	0.878	0.683	0.324	0.727	0.588	1	0.682	0.487	0.466	0.931	0.983
NC1(C(=O)N[C@@H](CCO)c2ccc(Cl)cc2)CCN(c2ncnc3[nH]ccc23)CC1 [Capivasertib] + CC(C)n1c(=O)n(C)c2cnc3cc(F)c(-c4ccc(OCCCN5CCCCC5)nc4)cc3c21 [AZD1390] (first compound max 10 µM, 7x7, partner max 0.3 µM)	0.415	0.509	0.485	0.338	0.274	0.282	0.739	0.54	0.135	0.295	0.178	0.406	0.265	1	0.512	0.372	0.292	0.48	0.282
CS(=O)(=O)CCNCc1ccc(-c2ccc3ncnc(Nc4ccc(OCc5cccc(F)c5)c(Cl)c4)c3c2)o1 [Lapatinib] + C[C@@H](Oc1cc(-c2cnn(C3CCNCC3)c2)cnc1N)c1c(Cl)ccc(F)c1Cl [Crizotinib] (first compound max 10 µM, 7x7, partner max 10 µM)	0.965	0.938	0.745	0.995	0.708	0.972	0.996	0.599	0.679	0.891	0.546	0.908	0.921	0.97	0.801	0.365	0.991	0.999	0.732
CC(=O)c1c(C)c2cnc(Nc3ccc(N4CCNCC4)cn3)nc2n(C2CCCC2)c1=O [Palbociclib] + Cc1c2c(nn1C)CSCc1cc(n(C)n1)CSc1cc(c3ccccc3c1)OCCCc1c(C(=O)O)n(C)c3c-2c(Cl)ccc13 [AZD5991] (first compound max 10 µM, 7x7, partner max 1 µM)	1	0.605	0.169	0.168	0.451	0.743	1	0.809	0.939	0.317	0.397	0.351	0.214	1	0.191	0.194	0.222	0.834	0.391
